Results reported in patent US6649658B1, “(−)-Verbenone derivatives” (Euphar Group SRL, priority 1999, dated 2003).

Assays:
[1] = Stability on storage or handling; assay type: physicochemical; details: in words
[2] = test system: Carrageenin-induced Pleurisy; assay: Carrageenin-induced pleurisy in the rat by the intraperitoneal route; assay type: in vivo; details: 25 mg/kg
Source text: (§1) The anti-inflammatory activity of 3-amino-(−)-verbenone-5-sulphosalicylate was compared with that of (−)-verbenone in accordance with methods described in the literature (C. A. WINTER et al. Carrageenin induced edema in hind paw of the rat as an assay for antinflammatory drugs. Proc. Soc. Exp. Biol. Med. 111, 544, 1962. CURVOISIER et al. Action of chlorpromazine on the edema produced by dextran in rats. Arch. Inter. Pharmacodynamie, 102, 33-54, 1955. B. B. NEWBOULD) Chemotherapy of arthritis induced in rats by microbacterial adjuvant. Brit. J. Pharmacol. 21, 127-135, 1963. J. V. HURLEY et al. Reagin-Like antibodies in animals immune to helminth parasites. Nature (Lond.) 204, 91, 1964. ROTHKOPF et al. Arzneimittel Forschung 26, 225-235, 1976. C. A. WINTER et al. Antitussive compounds: testing methods and results. J. Pharmacol. Exp. Ther. 112, 99, 1954. G. OSTERLOH Arzneimittel Forschung, 16, 901, 1966); the results are given hereinafter in schematic form.
6. Carrageenin-induced Pleurisy in the Rat by the Intraperitoneal Route
(§2) Parameter: percentage inhibition of the volume of exudate: […]

[3] = test system: Carrageenin-induced Pleurisy; assay: Carrageenin-induced pleurisy in the rat per os; assay type: in vivo; details: 180 mg/kg
Source text: as §1
5. Carrageenin-induced Pleurisy in the Rat per OS
as §2

[4] = test system: Carrageenin-induced Oedema; assay: Carrageenin-induced oedema in the rat by the intraperitoneal route; assay type: in vivo; details: 120 mg/kg, maximum effect 120 minutes after administration
Source text: as §1
2. Carrageenin-induced Oedema in the Rat by the Intraperitoneal Route
(§3) Parameter: percentage volumetric inhibition; maximum effect 120 minutes after administration: […]

Adjuvant Arthritis = assay: Adjuvant arthritis in the rat by the intraperitoneal route; assay type: in vivo; details: 60 mg/kg, day 28
Source text: as §1
3 Adjuvant Arthritis in the Rat by the Intraperitoneal Route
Parameter: percentage inhibition of the volumetric increase of the lower limbs; day “28”: […]

[5] = test system: Turpentine-induced Pleurisy; assay: Turpentine-induced pleurisy in the rat by the intraperitoneal route; assay type: in vivo; details: 60 mg/kg
Source text: as §1
4. Turpentine-induced Pleurisy in the Rat by the Intraperitoneal Route
Parameter: percentage inhibition of the volume of exudate and of leukocyte migration: […]

[6] = test system: Carrageenin-induced Oedema; assay: Carrageenin-induced oedema in the rat per os; assay type: in vivo; details: 200 mg/kg, maximum effect 120 minutes after administration
Source text: as §1
1. Carrageenin-induced Oedema in the Rat per OS
as §3

[7] = test system: Acrolein-induced Aerosol (inflammation of the airways); assay: Acrolein-induced aerosol in the guinea pig by the intraperitoneal route; assay type: in vivo; details: 30 mg/kg, residual inflammation after treatment (lower is better)
Source text: as §1
7. Acrolein-induced Aerosol in the Guinea Pig by the Intraperitoneal Route
Parameter: inflammation of the upper, middle, lower airways: scores (double blind):
(§4) N. B. It should be emphasised in this connection that the results of Examples 1-6 have been given as a percentage of volumetric inhibition; Examples 7 and 8, however, indicate inflammation and adverse gastric action of a residual nature after treatment.

Adverse Gastric Activity = assay: Adverse gastric activity in the rat per os (Osterloh); assay type: in vivo; details: for evaluation of adverse gastric action according to Osterloh: rat, per os, 360 mg/kg, residual adverse gastric action after treatment
Source text: as §1
8. Adverse Gastric Activity in the Rat per OS
Parameter: evaluation of adverse gastric action according to Osterloh
as §4

Water solubility = assay type: physicochemical; details: in words

| stability [1] | solubility in water (Water solubility) | Compound | percentage inhibition of the volume of exudate [2] [%] | percentage inhibition of the volume of exudate [3] [%] | percentage volumetric inhibition [4] [%] | percentage inhibition of the volumetric increase of the lower limbs (Adjuvant Arthritis) [%] | percentage inhibition of the volume of exudate and of leukocyte migration [5] [%] | percentage volumetric inhibition [6] [%] | inflammation of the upper, middle, lower airways: scores (double blind) [7] | evaluation of adverse gastric action according to Osterloh (Adverse Gastric Activity) | adverse gastric activity compared with (−)-verbenone (Adverse Gastric Activity; test 8, in words) |
| --- | --- | --- | --- | --- | --- | --- | --- | --- | --- | --- | --- |
| sensitive to oxygen, moisture and light | – | C=C1C=C(N2CCCC2)[C@H]2C[C@H]1C2(C)C [Compound 9c, (1S,5S)-6,6-Dimethyl-4-methylene-2-pyrrolidinobicyclo[3.1.1]hept-2-ene] | – | – | – | – | – | – | – | – | – |
| – | – | 3-Aminoverbenone-5-sulphosalicylate [3-amino-(−)-verbenone-5-sulphosalicylate] | 64 | 72 | 67 | 64 | 68 | 78 | 18 | 0.85 | substantially lower adverse gastric activity |
| instability over time | water-insolubility | CC1=CC(=O)[C@H]2C[C@@H]1C2(C)C [(−)-verbenone, (1S,5S)-4,6,6-Trimethylbicyclo[3.1.1]hept-3-en-2-one] | 48 | 46 | 48 | 39 | 49 | 63 | 24 | 2 | – |
